Laboratory results: ChEMBL document CHEMBL1152627, “Structure-activity relationship of antiparasitic and cytotoxic indoloquinoline alkaloids, and their tricyclic and bicyclic analogues” (Bioorg Med Chem, 2009)
Where a name gives a salt, the structure may show the parent alone. Calls of active or inactive are those of the source. No cut-off for these calls is given here.

Experiments:
[1] = test system: Trypanosoma brucei rhodesiense; assay: Antitrypanosomal activity against Trypanosoma brucei rhodesiense; format: functional, organism-based
Trypanosoma cruzi = assay: Antitrypanosomal activity against Trypanosoma cruzi; format: functional, organism-based
Leishmania donovani = assay: Antileishmanial activity against Leishmania donovani axenic amastigotes; format: functional, organism-based
Plasmodium falciparum [2] = assay: Antimalarial activity against chloroquine and pyrimethamine-resistant Plasmodium falciparum K1 by [3H]hypoxanthine incorporation assay; format: functional, organism-based
L6 = assay: (§1) Toxicity against rat L6 cells; format: cell-based; conditions: l6
[3] = as §1; format: cell-based; conditions: rat, L6 cells
Nucleic Acid = assay: Displacement of methyl green dye from DNA; format: nucleic-acid assay
[4] = Inhibition of beta-hematin formation by BHIA assay; format: functional
Plasmodium falciparum [5] = assay: Antimalarial activity against chloroquine-resistant Plasmodium falciparum W2; format: functional, organism-based
THP-1 = assay: Cytotoxicity in human THP1 cells; format: cell-based
Plasmodium falciparum [6] = assay: Antimalarial activity against chloroquine-sensitive Plasmodium falciparum D6; format: functional, organism-based
[7] = Selectivity index, ratio of IC50 for mice (Mus musculus) FM3A cells to IC50 for chloroquine-sensitive Plasmodium falciparum FCR3/Gambia; format: toxicity, cell-based; conditions: read-out: Ratio IC50
Plasmodium falciparum [8] = assay: Antimalarial activity against chloroquine and pyrimethamine-resistant Plasmodium falciparum K1; format: functional, organism-based
Plasmodium falciparum [9] = assay: Antimalarial activity against Plasmodium falciparum isolates; format: functional, organism-based
Plasmodium berghei [10] = assay: Antimalarial activity against Plasmodium berghei ANKA infected in Swiss mice (Mus musculus) assessed as parasitaemia level at 10 mg/kg, intraperitoneally dosed for 5 consecutive days measured 4 days post infection; conditions: route intraperitoneal
Plasmodium berghei [11] = assay: Antimalarial activity against Plasmodium berghei ANKA infected in Swiss mice (Mus musculus) assessed as mice (Mus musculus) survival at 10 mg/kg, intraperitoneally dosed for 5 consecutive days measured 7 days post infection; conditions: ip, 168 h
Plasmodium berghei [12] = assay: Antimalarial activity against Plasmodium berghei ANKA infected in Swiss mice (Mus musculus) assessed as suppression of parasitaemia at 10 mg/kg, intraperitoneally dosed for 5 consecutive days measured 4 days post infection relative to untreated control; conditions: route intraperitoneal
Plasmodium falciparum [13] = assay: Antimalarial activity against chloroquine-sensitive Plasmodium falciparum FCR3/Gambia; format: functional; conditions: FCR-3/Gambia
FM3A = assay: Cytotoxicity in mouse FM3A cells; format: cell-based

| Structure (SMILES) | IC50 (Trypanosoma cruzi; Trypanosoma cruzi) [µM] | IC50 (Leishmania donovani; Leishmania donovani) [µM] | IC50 ([1]; Trypanosoma brucei) [µM] | IC50 (Plasmodium falciparum [2]; Plasmodium falciparum, K1) [nM] | IC50 [3] [µM] | also measured |
| --- | --- | --- | --- | --- | --- | --- |
| Cn1cccc2nc3ccccc3c1-2 [listing 1 of 2 here] | > 160 | > 160 |  |  |  | IC50 [1]: 138 µM; IC50 (Plasmodium falciparum [2]): 480 nM; IC50 (L6): 179 µM |
| C[n+]1ccc2c(c1)[nH]c1ccccc12 [listing 1 of 2 here] | > 95 | 52.3 | 155 | 340 | > 290 | IC50 (Nucleic Acid): > 2800 µM |
| Cn1ccc2nc3ccccc3c-2c1 [listing 1 of 2 here] | > 160 | > 160 |  | 2100 | 390 | IC50 [1]: 138 µM |
| C[n+]1cc2[nH]c3ccccc3c2c2ccccc21 [ISONEOCRYPTOLEPINE HYDROCHLORIDE] | 21 | 75.4 | 6.48 | 230 |  | inhibition [4]: Active; inhibition (Nucleic Acid): Active |
| Cn1cc2ccccc2c2nc3ccccc3c1-2 [listing 1 of 2 here] | 1.53 |  | 0.55 |  |  | IC50 (Leishmania donovani): 16.8 µM; IC50 (Plasmodium falciparum [2]): 570 nM; IC50 (L6): 2.2 µM |
| Cn1c2nc3ccccc3c-2cc2ccccc21 [NEOCRYPTOLEPINE HYDROCHLORIDE] | 2.01 | 49.5 | 2.23 | 2610 |  | inhibition [4]: Active; inhibition (Nucleic Acid): Active |
| Cn1cc2ccccc2c2ccnc1-2 | 40.9 | 97.5 | 8.4 | 7800 | 153 |  |
| Cc1nccc2c1[nH]c1ccccc12 [HARMAN] |  |  |  |  |  | IC50 (Plasmodium falciparum [5]): 7.1 µM; IC50 (THP-1): 121 µM; IC50 (Plasmodium falciparum [6]): 12.1 µM |
| C[n+]1c2ccccc2cc2[n-]c3ccccc3c21 [CRYPTOLEPINE HYDROCHLORIDE] | 0.22 | 2.68 | 0.6 | 120 |  | inhibition [4]: Active; inhibition (Nucleic Acid): Active |
| Cn1cccc2c3ccccc3nc1-2 [listing 1 of 2 here] | 64.5 |  |  | 13000 | 236 | IC50 [1]: 34 µM; IC50 (Leishmania donovani): > 95 µM |
| CCCCCCCCCCCCCCCCOP(=O)([O-])OCC[N+](C)(C)C [MILTEFOSINE] |  |  |  |  | 58.4 |  |
| Cc1c2[nH]c3ccccc3c2cc[n+]1C |  |  |  |  |  | selectivity ratio [7]: 18; IC50 (Plasmodium falciparum [8]): 5.1 µM |
| C=Cc1ncc(OC)c2c1[nH]c1ccc(O)cc12 |  |  |  |  |  | IC50 (Plasmodium falciparum [9]): 13.7 µM |
| Cn1ccc2nc3ccccc3c-2c1 [listing 2 of 2 here] |  |  | 109 |  |  | IC50 (Trypanosoma cruzi): > 95 µM; IC50 (Leishmania donovani): > 95 µM; IC50 (Plasmodium falciparum [2]): 2400 nM; IC50 (L6): > 290 µM |
| C[n+]1ccc2c(c1)[nH]c1ccccc12 [NORMELINONINE F HYDROCHLORIDE] |  |  |  |  |  | IC50 (Plasmodium falciparum [8]): 13.6 µM |
| Cn1cccc2c3ccccc3nc1-2 [listing 2 of 2 here] |  | > 160 | 21.3 |  |  | IC50 (Trypanosoma cruzi): 89.2 µM; IC50 (Plasmodium falciparum [2]): 14700 nM; IC50 (L6): 300 µM |
| Cn1ccc2c3ccccc3nc-2c1 | > 160 | 92.1 | 93.7 | 450 | > 490 | inhibition [4]: inactive; IC50 (Nucleic Acid): > 3800 µM |
| c1ccc2c(c1)ncc1[nH]ccc12 | 81 | 183 | 25.5 | 6400 | 173 |  |

| Structure (SMILES) | IC50 (Trypanosoma cruzi; Trypanosoma cruzi) [µM] | IC50 (Leishmania donovani; Leishmania donovani) [µM] | IC50 ([1]; Trypanosoma brucei) [µM] | IC50 (Plasmodium falciparum [2]; Plasmodium falciparum, K1) [nM] | IC50 [3] [µM] | also measured |
| --- | --- | --- | --- | --- | --- | --- |
| Cn1cc2ccccc2c2c3ccccc3nc1-2.I | 11.9 |  | 2.59 |  | 1.5 | IC50 (Leishmania donovani): 6.6 µM; IC50 (Plasmodium falciparum [2]): 32 nM; IC50 [4]: 3.32 molar equivalents; IC50 (Nucleic Acid): 87 µM |
| C=Cc1ncc(OC)c2c1[nH]c1ccccc12 |  |  |  |  |  | IC50 (Plasmodium falciparum [9]): 10.7 µM |
| c1ccc2c(c1)cnc1[nH]ccc12 | 69.6 | 30.3 | 43.5 | 23200 | 119 |  |
| CCN(CC)CCCC(C)Nc1ccnc2cc(Cl)ccc12 (stereo not drawn) [CHLOROQUINE] |  |  |  |  | 43.1 | Activity (Plasmodium berghei [10]): 5.24%; survival at 10 mg/kg (Plasmodium berghei [11]): 100%; Activity (Plasmodium berghei [12]): 86.3% |
| C[n+]1ccc2c(c1)[nH]c1ccccc12 [listing 2 of 2 here] |  |  |  |  |  | inhibition [4]: inactive |
| Cn1cc2ccccc2c2c3ccccc3nc1-2 |  | 4.8 |  | 40 |  | IC50 [1]: 3.33 µM; IC50 (Trypanosoma cruzi): 20.7 µM; IC50 (L6): 1.3 µM; IC50 [4]: 2.76 molar equivalents; IC50 (Nucleic Acid): 81 µM |
| COc1ccc2c3cc[n+](C)c(C)c3n(C)c2c1 |  |  |  |  |  | IC50 (Plasmodium falciparum [13]): < 1000 nM; IC50 (FM3A): > 10 µM; selectivity ratio [7]: > 32 |
| Cn1cc2nccc-2c2ccccc21 | 76.8 | 169 | 31.5 | 3200 | 160 |  |
| Cn1cccc2nc3ccccc3c1-2 [listing 2 of 2 here] |  |  | 86.1 | 380 | 132 | IC50 (Trypanosoma cruzi): > 95 µM; IC50 (Leishmania donovani): > 95 µM |
| COc1c[n+](C)c(C)c2[nH]c3ccccc3c12 |  |  |  |  |  | IC50 (Plasmodium falciparum [13]): < 1000 nM; IC50 (FM3A): > 10 µM; selectivity ratio [7]: > 32 |
| Cn1cc2c3ccccc3nc-2c2ccccc21 [ISOCRYPTOLEPINE HYDROCHLORIDE] | 1.27 | 39.1 | 0.52 | 780 |  | inhibition [4]: Active; inhibition (Nucleic Acid): Active |
| Nc1nc(N)nc(Nc2ccc([As]3SCC(CO)S3)cc2)n1 (stereo not drawn) [MELARSOPROL] |  |  |  |  | 8.6 |  |
| O=C(Cn1ccnc1[N+](=O)[O-])NCc1ccccc1 [BENZNIDAZOLE] | 1.25 |  |  |  | > 90 |  |
| C=Cc1c2[nH]c3ccccc3c2c(OC)c[n+]1CC |  |  |  |  |  | IC50 (Plasmodium falciparum [13]): < 1000 nM; IC50 (FM3A): > 10 µM; selectivity ratio [7]: > 32 |
| CC1NCCc2c1[nH]c1ccccc21 (stereo not drawn) [TETRAHYDROHARMAN] |  |  |  |  |  | IC50 (Plasmodium falciparum [5]): 7.5 µM; IC50 (THP-1): 403 µM; IC50 (Plasmodium falciparum [6]): 20.1 µM |
| Cn1cc2ccccc2c2nc3ccccc3c1-2 [listing 2 of 2 here] |  | 15.5 |  | 640 | 1.48 | IC50 [1]: 0.72 µM; IC50 (Trypanosoma cruzi): 1.66 µM |
| CCc1c2[nH]c3ccccc3c2c(OC)c[n+]1C |  |  |  |  |  | IC50 (Plasmodium falciparum [13]): < 1000 nM; IC50 (FM3A): > 10 µM; selectivity ratio [7]: > 32 |
